Holding throughout (assay): NCI-60 cell line screen, 48 h
Assay [1] deals with KM12 colon.
Assay [2] relates to MOLT-4 leukemia.
The subject of assay [3] is SK-OV-3 ovarian.
Assay [4] deals with SN12C renal.
For assay [5], the system named is SK-MEL-2 melanoma.
Assay [6] concerns NCI-H522 lung.
Assay [7] relates to NCI-H23 lung.
Assay [8] concerns SNB-75 CNS.
The test system of assay [9] is LOX IMVI melanoma.
Assay [10] deals with OVCAR-8 ovarian.

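Five concentrations, 48 hours, 96-well plates. Here, GI50 denotes the concentration required for 50% inhibition of growth. TGI: concentration producing complete growth inhibition.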

Consider `O=c1c2cc(Br)ccc2nc(CCl)n1-c1ccc(O)c([N+](=O)[O-])c1`, for which the TGI in assay [1] amounted to 39.1 µM; in [2], 53.5 µM; in assay [3], 93.5 µM; in assay [4] it was 36 µM; in assay [5], 31.1 µM; in assay [6], 35.7 µM. Moreover, the TGI in [7] amounted to 35.8 µM; in [8] it was 44 µM; in assay [9], 36.2 µM; in [10] it was 42.2 µM.
As for `CN(C)CCNC(=O)Cn1ccc(=O)c2c([N+](=O)[O-])cccc21`, the TGI in [1], in assay [2], in assay [3], in assay [4], in [5] and in [6] was above 100 µM each time. Also, the TGI in assay [7], in [8], in [9] and in [10] was above 100 µM throughout.
With `CC(=O)c1ccc(O)c(CN(C2CCCCC2)C2CCCCC2)c1O`, the TGI in [1], in assay [2], in assay [3], in assay [4], in [5] and in [6] was above 100 µM each time. Moreover, the TGI in assay [7], in assay [8], in assay [9] and in assay [10] was above 100 µM throughout.
For the compound `O=c1oc2ccc(I)cc2c(=O)n1-c1ccc(Cl)cc1F`, the GI50 was 2.22 µM in [1]; 2.24 µM in assay [2]; 0.8 µM in [4]; 0.582 µM in [5]; 0.8 µM in assay [6]; 1.61 µM in [7]. For the same compound, the GI50 in [8] was 0.5 µM; in [9] it was 1.33 µM; in assay [10], 1.66 µM. The TGI worked out at 5.39 µM in [1]; 6.81 µM in assay [2]; 8.77 µM in assay [4]; 3.43 µM in assay [5]; 9.72 µM in assay [6]; 7.68 µM in assay [7]. The results for the TGI in assay [8], in assay [9] and in [10] were 2.97 µM, 11.4 µM and 24.9 µM, respectively.
For the compound `CCC(=O)Nc1nc2c(ncn2C2OC(COC(=O)CC)C(OC(=O)CC)C2OC(=O)CC)c(=O)[nH]1` (configuration not stated), the TGI in [1], in assay [2], in [3], in assay [4], in assay [5] and in assay [6] was above 100 µM throughout. Also, the TGI in assay [8], in [9] and in [10] was above 100 µM in each case.
In the case of `N#CNC(N)=Nc1ccc(Cl)cc1`, the TGI in assay [1], in assay [2], in assay [3], in [4], in [5] and in [6] was above 100 µM each time. The TGI in assay [7], in assay [8], in assay [9] and in [10] was above 100 µM throughout.
As for `CN1/C(=C\C=C\C2=[N+](C)c3ccccc3C2(C)C)C(C)(C)c2ccccc21`, the GI50 in assay [1] is 0.0363 µM; in [2] it was 0.146 µM; in assay [3], 0.152 µM; in assay [4], 0.155 µM; in assay [5], 0.212 µM; in [6], 0.0782 µM. Further, the GI50 in [7] is 0.0189 µM; in [8], 0.271 µM; in assay [9] it was 0.0445 µM; in [10], 0.101 µM. Besides, the TGI in assay [1] is 0.932 µM; in assay [2], 1.87 µM; in assay [3] it was 0.638 µM; in assay [4] it was 1.11 µM; in assay [5] it was 1.14 µM; in assay [6], 10.2 µM. In addition, the TGI in assay [7] was 0.529 µM; in assay [8] it was 1.88 µM; in [9], 0.796 µM; in [10], 7.52 µM.
`Cn1cc(C2=C(c3cn(C4CCN(Cc5ccccn5)CC4)c4ccccc34)C(=O)NC2=O)c2ccccc21`: the GI50 in assay [1] is 3.85 µM; in assay [2] it was 3.52 µM; in assay [3], 5.55 µM; in assay [4], above 100 µM; in assay [5], 3.08 µM; in assay [6], 4.19 µM. Moreover, the GI50 is 6.31 µM in assay [7], 0.358 µM in assay [8], 4.9 µM in assay [9] and 6.23 µM in assay [10]. Moreover, the TGI is above 100 µM in [1]; above 100 µM in assay [2]; above 100 µM in assay [3]; above 100 µM in assay [4]; 47.5 µM in assay [5]; above 100 µM in assay [6]. Further, the TGI in assay [7] was above 100 µM; in assay [8] it was 9.74 µM; in assay [9], above 100 µM; in [10], above 100 µM.
For `O=[N+]([O-])c1ccc(-c2ccc(-c3csc(Nc4ccccc4)n3)o2)cc1`, the TGI is 38.3 µM in assay [1]; 46.2 µM in [2]; above 100 µM in assay [3]; 33 µM in assay [4]; 36.4 µM in [5]; 32 µM in [6]. In addition, the TGI was 36.8 µM in assay [7], above 56.8 µM in [8], 34.8 µM in assay [9] and 40.7 µM in [10].
For `CC(=O)/C(=C/c1ccccc1F)C(=O)c1ccccc1`, the TGI in assay [1] is above 100 µM; in assay [2] it was 7.14 µM; in assay [3], above 100 µM; in [4], above 100 µM; in [5], 93.8 µM; in assay [6] it was above 100 µM. The TGI in assay [7] is above 100 µM; in assay [8], above 100 µM; in assay [9] it was 40.8 µM; in assay [10], 51 µM.
With `COc1cc(NCCCCCCCNC(C)C)c2nccc(C)c2c1`, the GI50 is 13.7 µM in assay [1]; 6.95 µM in assay [2]; 13.7 µM in [3]; 12.2 µM in [4]; 20 µM in assay [5]; 16 µM in assay [6]. The GI50 in assay [7] is 12.1 µM; in [8] it was 11.7 µM; in assay [9], 7.03 µM; in [10] it was 15.2 µM. Further, the TGI in assay [1] was found to be 27.9 µM; in [2] it was 23 µM; in assay [3] it was 27.1 µM; in [4], 25.7 µM; in assay [5], 38.3 µM; in assay [6] it was 35 µM. Further, the TGI was 26.2 µM in assay [7], 24.3 µM in assay [8], 21.5 µM in assay [9] and 33.5 µM in [10].

The values are drawn from PubChem BioAssay (NCI).
